Results on 10 compounds are retold here after patent US9758529B2, “Fused dihydro-4H-pyrazolo[5,1-C][1,4]oxazinyl compounds and analogs for treating CNS disorders” (Sunovion Pharmaceuticals Inc., priority 2015, dated 2017).

Where a name gives a salt, the structure may show the parent alone.

For this experiment, the system named is mice. The experiment is described as follows: Neuropharmacological Assay (SmartCube). The following applies: i.p. 15 min before behavioral test; 3 doses, most efficacious dose(s) presented. Format: in vivo.

On to `CC(C)NCC1OCCn2nc3ccccc3c21` (centres unmarked) [Compound 17, N-((3,4-dihydro-1H-[1,4]oxazino[4,3-b]indazol-1-yl)methyl)propan-2-amine], for which the “AD: ADHD (probability of class match)” value was “+ (LOQ≦ + <5%)”, the “AG: analgesic (probability of class match)” value (shortened to “AG: analgesic”) is “+ (LOQ≦ + <5%)”, the “AX: anxiolytic (probability of class match)” value (shortened to “AX: anxiolytic”) is “++ (5%≦ ++ <25%)” and the “CE: cognitive enhancer (probability of class match)” value (“CE: cognitive enhancer” below) is recorded as “+ (LOQ≦ + <5%)”. The “DP: anti-depressant (probability of class match)” value (from here on “DP: anti-depressant”) is reported as “++ (5%≦ ++ <25%)”, the “HA: hallucinogen (probability of class match)” value (“HA: hallucinogen” below) is “+ (LOQ≦ + <5%)”, the “MS: mood stabilizer (probability of class match)” value (“MS: mood stabilizer” below) is on record as “+ (LOQ≦ + <5%)” and the “PS: anti-psychotic (probability of class match)” value (shortened to “PS: anti-psychotic”) is listed as “+ (LOQ≦ + <5%)”. Also, the “SD: sedative hypnotic (probability of class match)” value (“SD: sedative hypnotic” below) is reported as “+ (LOQ≦ + <5%)”, the “UN: uncharacterized CNS activity (probability of class match)” value (“UN: uncharacterized CNS activity” for short) is recorded as “++ (5%≦ ++ <25%)” and the “XG: anxiogenic (probability of class match)” value (“XG: anxiogenic” for short) is reported as “+ (LOQ≦ + <5%)”.
For the compound `CCNCC1OCCn2nc3ccccc3c21.Cl` (centres unmarked) [Compound 18, N-((3,4-dihydro-1H-[1,4]oxazino[4,3-b]indazol-1-yl)methyl) ethanamine hydrogen chloride salt], the “AD: ADHD (probability of class match)” value is listed as “+ (LOQ≦ + <5%)”, the “AG: analgesic” value is given as “++ (5%≦ ++ <25%)”, the “AX: anxiolytic” value is “++ (5%≦ ++ <25%)” and the “CE: cognitive enhancer” value is listed as “++ (5%≦ ++ <25%)”. Further, the “DP: anti-depressant” value is on record as “+ (LOQ≦ + <5%)”, the “HA: hallucinogen” value is reported as “+ (LOQ≦ + <5%)”, the “MS: mood stabilizer” value is listed as “+ (LOQ≦ + <5%)” and the “PS: anti-psychotic” value is reported as “++ (5%≦ ++ <25%)”. Also, the “SD: sedative hypnotic” value was “+ (LOQ≦ + <5%)”, the “UN: uncharacterized CNS activity” value is “+ (LOQ≦ + <5%)” and the “XG: anxiogenic” value was “+ (LOQ≦ + <5%)”.
On to `c1ccc2c3n(nc2c1)CCOC3CN1CCCC1` (centres unmarked) [Compound 19, 1-(pyrrolidin-1-ylmethyl)-3,4-dihydro-1H-[1,4]oxazino[4,3-b]indazole hydrogen chloride salt], for which the “AD: ADHD (probability of class match)” value was “+ (LOQ≦ + <5%)”, the “AG: analgesic” value is “++ (5%≦ ++ <25%)”, the “AX: anxiolytic” value is “++ (5%≦ ++ <25%)” and the “CE: cognitive enhancer” value was “++ (5%≦ ++ <25%)”. Moreover, the “DP: anti-depressant” value is “+++ (25%≦ +++ <50%)”, the “HA: hallucinogen” value is recorded as “+ (LOQ≦ + <5%)”, the “MS: mood stabilizer” value is reported as “+ (LOQ≦ + <5%)” and the “PS: anti-psychotic” value is recorded as “+ (LOQ≦ + <5%)”. The “SD: sedative hypnotic” value was “+ (LOQ≦ + <5%)”, the “UN: uncharacterized CNS activity” value was “+ (LOQ≦ + <5%)” and the “XG: anxiogenic” value is “+ (LOQ≦ + <5%)”.
On to `c1ccc2c3n(nc2c1)CCOC3CN1CCOCC1` (centres unmarked) [Compound 20, 1-(morpholinomethyl)-3,4-dihydro-1H-[1,4]oxazino[4,3-b]indazole hydrogen chloride salt], for which the “AD: ADHD (probability of class match)” value was “+ (LOQ≦ + <5%)”, the “AG: analgesic” value is listed as “++ (5%≦ ++ <25%)”, the “AX: anxiolytic” value is reported as “+++ (25%≦ +++ <50%)” and the “CE: cognitive enhancer” value was “++ (5%≦ ++ <25%)”. For the same compound, the “DP: anti-depressant” value is recorded as “++ (5%≦ ++ <25%)”, the “HA: hallucinogen” value was “+ (LOQ≦ + <5%)”, the “MS: mood stabilizer” value is “+ (LOQ≦ + <5%)” and the “PS: anti-psychotic” value was “++ (5%≦ ++ <25%)”. For the same compound, the “SD: sedative hypnotic” value is “+ (LOQ≦ + <5%)”, the “UN: uncharacterized CNS activity” value is “+ (LOQ≦ + <5%)” and the “XG: anxiogenic” value was “+ (LOQ≦ + <5%)”.
With `c1ccc2c3n(nc2c1)CCOC3CNC1CC1` (centres unmarked) [Compound 21, N-((3,4-dihydro-1H-[1,4]oxazino[4,3-b]indazol-1-yl)methyl)cyclopropan amine hydrogen chloride salt], the “AD: ADHD (probability of class match)” value is recorded as “+ (LOQ≦ + <5%)”, the “AG: analgesic” value was “++ (5%≦ ++ <25%)”, the “AX: anxiolytic” value is listed as “++ (5%≦ ++ <25%)” and the “CE: cognitive enhancer” value is reported as “+ (LOQ≦ + <5%)”. Moreover, the “DP: anti-depressant” value was “++ (5%≦ ++ <25%)”, the “HA: hallucinogen” value was “+ (LOQ≦ + <5%)”, the “MS: mood stabilizer” value was “+ (LOQ≦ + <5%)” and the “PS: anti-psychotic” value is given as “++ (5%≦ ++ <25%)”. Moreover, the “SD: sedative hypnotic” value is “+ (LOQ≦ + <5%)”, the “UN: uncharacterized CNS activity” value was “+ (LOQ≦ + <5%)” and the “XG: anxiogenic” value is “+ (LOQ≦ + <5%)”.
Consider `CN(CC1OCCn2nc3ccccc3c21)C1CC1` (centres unmarked) [Compound 22, N-((3,4-dihydro-1H-[1,4]oxazino[4,3-b]indazol-1-yl)methyl)-N-methylcyclopropanamine hydrogen chloride salt], for which the “AD: ADHD (probability of class match)” value is “++ (5%≦ ++ <25%)”, the “AG: analgesic” value is recorded as “+ (LOQ≦ + <5%)”, the “AX: anxiolytic” value is “++ (5%≦ ++ <25%)” and the “CE: cognitive enhancer” value was “+ (LOQ≦ + <5%)”. In addition, the “DP: anti-depressant” value is “++++ (50%≦ ++++)”, the “HA: hallucinogen” value was “++ (5%≦ ++ <25%)”, the “MS: mood stabilizer” value is given as “+ (LOQ≦ + <5%)” and the “PS: anti-psychotic” value is listed as “+ (LOQ≦ + <5%)”. Also, the “SD: sedative hypnotic” value was “+ (LOQ≦ + <5%)”, the “UN: uncharacterized CNS activity” value is “++ (5%≦ ++ <25%)” and the “XG: anxiogenic” value was “+ (LOQ≦ + <5%)”.
`CN1CCC2(C1)OCCn1nc3ccccc3c12.Cl` (centres unmarked) [Compound 23, 1′-methyl-3,4-dihydrospiro[[1,4]oxazino[4,3-b]indazole-1,3′-pyrrolidin]-1′-ium chloride]: the “AD: ADHD (probability of class match)” value was “+ (LOQ≦ + <5%)”, the “AG: analgesic” value is given as “++ (5%≦ ++ <25%)”, the “AX: anxiolytic” value is reported as “++++ (50%≦ ++++)” and the “CE: cognitive enhancer” value was “++ (5%≦ ++ <25%)”. The “DP: anti-depressant” value was “++ (5%≦ ++ <25%)”, the “HA: hallucinogen” value is listed as “+ (LOQ≦ + <5%)”, the “MS: mood stabilizer” value was “+ (LOQ≦ + <5%)” and the “PS: anti-psychotic” value is listed as “+ (LOQ≦ + <5%)”. Moreover, the “SD: sedative hypnotic” value was “+ (LOQ≦ + <5%)”, the “UN: uncharacterized CNS activity” value is given as “+ (LOQ≦ + <5%)” and the “XG: anxiogenic” value was “+ (LOQ≦ + <5%)”.
With `CN1CCC2(CC1)OCCn1nc3ccccc3c12.Cl` [Compound 24, 1′-methyl-3,4-dihydrospiro[[1,4]oxazino[4,3-b]indazole-1,4′-piperidin]-1′-ium chloride], the “AD: ADHD (probability of class match)” value is listed as “+ (LOQ≦ + <5%)”, the “AG: analgesic” value is “++ (5%≦ ++ <25%)”, the “AX: anxiolytic” value was “++ (5%≦ ++ <25%)” and the “CE: cognitive enhancer” value is recorded as “++ (5%≦ ++ <25%)”. Also, the “DP: anti-depressant” value was “++ (5%≦ ++ <25%)”, the “HA: hallucinogen” value is “+ (LOQ≦ + <5%)”, the “MS: mood stabilizer” value was “+ (LOQ≦ + <5%)” and the “PS: anti-psychotic” value is recorded as “++ (5%≦ ++ <25%)”. For the same compound, the “SD: sedative hypnotic” value is recorded as “+ (LOQ≦ + <5%)”, the “UN: uncharacterized CNS activity” value is listed as “+ (LOQ≦ + <5%)” and the “XG: anxiogenic” value is given as “+ (LOQ≦ + <5%)”.
As to `CN1CCO[C@@H]([C@@H]2OCCn3nc4ccccc4c32)C1` [Compound 25, (2R)-2-((R)-3,4-dihydro-1H-[1,4]oxazino[4,3-b]indazol-1-yl)-4-methylmorpholin-4-ium chloride], the “AD: ADHD (probability of class match)” value is recorded as “++ (5%≦ ++ <25%)”, the “AG: analgesic” value is “++ (5%≦ ++ <25%)”, the “AX: anxiolytic” value is “++ (5%≦ ++ <25%)” and the “CE: cognitive enhancer” value is “+ (LOQ≦ + <5%)”. Besides, the “DP: anti-depressant” value is “++ (5%≦ ++ <25%)”, the “HA: hallucinogen” value is “+ (LOQ≦ + <5%)”, the “MS: mood stabilizer” value is “+ (LOQ≦ + <5%)” and the “PS: anti-psychotic” value is on record as “+ (LOQ≦ + <5%)”. In addition, the “SD: sedative hypnotic” value is “+ (LOQ≦ + <5%)”, the “UN: uncharacterized CNS activity” value was “+ (LOQ≦ + <5%)” and the “XG: anxiogenic” value was “+ (LOQ≦ + <5%)”.
With `CN1CCO[C@@H]([C@H]2OCCn3nc4ccccc4c32)C1` [Compound 26, (2R)-2-((S)-3,4-dihydro-1H-[1,4]oxazino[4,3-b]indazol-1-yl)-4-methylmorpholin-4-ium chloride], the “AD: ADHD (probability of class match)” value is recorded as “+ (LOQ≦ + <5%)”, the “AG: analgesic” value is “++ (5%≦ ++ <25%)”, the “AX: anxiolytic” value is “+ (LOQ≦ + <5%)” and the “CE: cognitive enhancer” value is on record as “+ (LOQ≦ + <5%)”. Besides, the “DP: anti-depressant” value is “++ (5%≦ ++ <25%)”, the “HA: hallucinogen” value is reported as “+ (LOQ≦ + <5%)”, the “MS: mood stabilizer” value is “+ (LOQ≦ + <5%)” and the “PS: anti-psychotic” value is given as “+ (LOQ≦ + <5%)”. In addition, the “SD: sedative hypnotic” value is “+ (LOQ≦ + <5%)”, the “UN: uncharacterized CNS activity” value is recorded as “+ (LOQ≦ + <5%)” and the “XG: anxiogenic” value is given as “+ (LOQ≦ + <5%)”.
